From ChEMBL document CHEMBL1201862, “PubChem BioAssay data set” (2004)
The source made the active and inactive calls.

Legend:
Ion channel NompC = Ion channel NompC (Danio rerio, UniProt Q7T1G6); assay: Fluorescence counterscreen assay for TRPML3 agonists: dose response cell-based high-throughput screening assay to identify agonists of the transient receptor potential channel N1 (TRPN1). [Related pubchem assays: 1526, 1424, 1448 ]; format: functional
Mucolipin-3 = Mucolipin-3 (Homo sapiens, UniProt Q8TDD5); assay: Dose response cell-based high-throughput screening assay for agonists of the transient receptor potential channel ML3 (TRPML3). [Related pubchem assays: 1526, 1424, 1448 ]; format: functional
[1] = target: T1, Calpain-2 catalytic subunit (Sus scrofa, UniProt P43367); assay: m-calpain protease blockers, concentration series – biochemical, fluorogenic peptide substrate, dose response (AID 1420); format: functional
T1 sequence (P43367 whole entry): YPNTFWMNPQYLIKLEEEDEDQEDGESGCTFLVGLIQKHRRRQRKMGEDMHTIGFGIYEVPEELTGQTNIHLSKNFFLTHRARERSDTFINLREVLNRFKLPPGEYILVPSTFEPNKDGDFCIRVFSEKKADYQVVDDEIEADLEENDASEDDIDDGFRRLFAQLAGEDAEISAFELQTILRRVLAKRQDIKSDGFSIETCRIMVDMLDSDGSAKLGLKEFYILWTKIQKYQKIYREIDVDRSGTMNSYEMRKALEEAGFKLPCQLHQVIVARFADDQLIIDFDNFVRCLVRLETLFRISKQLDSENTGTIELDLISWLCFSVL

[2] = target: Heat shock protein HSP 90-alpha (Homo sapiens, UniProt P07900); format: functional, organism-based
[3] = target: Eukaryotic translation initiation factor 4E (Mus musculus, UniProt P63073); assay: blockers of eIF4G binding by eIF4E – biochemical, TR-FRET, dose response (AID 855); format: functional;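 further: potency for disrupting eIF4E binding to eIF4GI seen as loss of FRET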
[4] = CCR5-tropic HIV-1 fusion blockers – cell-based, CCR5-tropic Env, dose response (AID 2279); format: functional
Protein Rev = target: T2, Protein Rev (Human immunodeficiency virus type 1 group M subtype B (isolate WMJ22)(HIV-1), UniProt P05866); assay: inhibitors of Rev protein–RRE RNA complex – biochemical, protein-RNA interaction, dose response (AID 842); set-up: species or system Human immunodeficiency virus 1
T2 sequence (P05866 whole entry): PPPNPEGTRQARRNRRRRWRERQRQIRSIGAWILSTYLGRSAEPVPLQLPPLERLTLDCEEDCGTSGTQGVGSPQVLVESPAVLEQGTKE

[5] = target: T3, Low molecular weight phosphotyrosine protein phosphatase (Homo sapiens, UniProt P24666); format: functional; settings: read-out: IC50_Mean
T3 sequence (P24666 whole entry): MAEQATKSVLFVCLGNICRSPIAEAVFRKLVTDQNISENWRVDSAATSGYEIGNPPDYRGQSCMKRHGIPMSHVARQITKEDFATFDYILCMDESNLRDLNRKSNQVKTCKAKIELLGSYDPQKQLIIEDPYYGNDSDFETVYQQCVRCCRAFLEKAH

[6] = target: T3, Low molecular weight phosphotyrosine protein phosphatase; format: functional; settings: read-out: IC50_Mean; remark: listed apart in the source
[7] = target: T4, Carboxy-terminal domain RNA polymerase II polypeptide A small phosphatase 1 (Homo sapiens, UniProt Q9GZU7); assay: CTDSP1 inhibitors, concentration-response, biochemical, absorbance readout, ultra-high-throughput screen actives (AID 540297); format: functional
T4 sequence (Q9GZU7 whole entry): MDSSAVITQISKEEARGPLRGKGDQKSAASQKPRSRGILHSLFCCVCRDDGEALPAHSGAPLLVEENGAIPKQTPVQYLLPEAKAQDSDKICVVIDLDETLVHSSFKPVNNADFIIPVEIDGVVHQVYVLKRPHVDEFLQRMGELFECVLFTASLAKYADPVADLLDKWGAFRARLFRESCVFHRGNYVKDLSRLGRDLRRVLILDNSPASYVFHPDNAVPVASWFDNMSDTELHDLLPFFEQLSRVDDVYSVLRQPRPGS

[8] = target: Protein-tyrosine kinase 2-beta (Homo sapiens, UniProt Q14289);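 further: potency of inhibitors of PYK2 kinase phosphorylation of poly-GT substrate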
[9] = target: DNA dC->dU-editing enzyme APOBEC-3G (Homo sapiens, UniProt Q9HC16); assay: Dose Response confirmation of small molecule APOBEC3G DNA Deaminase Inhibitors via a fluorescence-based single-stranded DNA deaminase assay. [Related pubchem assays (depositor defined):AID493012, AID493028]; format: functional
[10] = Luminescence Cell-Based Dose Confirmation HTS to Identify Activators of 5'UTR Stem-Loop Driven Alpha-Synuclein mRNA Translation in H4 Neuroglioblastoma Cells. [Related pubchem assays: 1829 (Project Summary), 1814 (Primary HTS)]; format: functional
H4 = assay: Luminescence Cell-Based Dose Response HTS to Identify Activators of 5'UTR Stem-Loop Driven Prion Protein mRNA Translation in H4 Neuroglioblastoma Cells. [Related pubchem assays: 1829 (Project Summary), 1814 (Primary HTS)]; format: functional; settings: Homo sapiens
[11] = Luminescence Cell-Based Dose Response HTS to Identify Activators of Luciferase Translation or Activity in H4 […] Cells. [Related pubchem assays: 1829 (Project Summary), 1814 (Primary HTS)]; format: functional
[12] = Luminescence Cell-Based Dose Response to Identify Activators of 5'UTR Stem-Loop Driven Prion Protein mRNA Translation in H4-C Neuroglioblastoma Cells. [Related pubchem assays: 1829 (Project Summary), 1814 (Primary HTS)]; format: functional
[13] = Luminescence Cell-Based Dose Response to Identify Activators of Luciferase Translation or Activity in H4-C Neuroglioblastoma Cells. [Related pubchem assays: 1829 (Project Summary), 1814 (Primary HTS)]; format: functional
[14] = Luminescence Cell-Based Dose Confirmation to Identify Activators of 5'UTR Stem-Loop Driven Alpha-Synuclein mRNA Translation in H4 Neuroglioblastoma Cells. [Related pubchem assays: 1829 (Project Summary), 1814 (Primary HTS)]; format: functional
NS3 = NS3 (Hepatitis C virus, UniProt A3EZJ3); assay: PubChem AID 2173; set-up: species or system Hepacivirus hominis
[15] = target: Sphingosine 1-phosphate receptor 3 (Homo sapiens, UniProt Q99500); assay: Dose response cell-based high throughput screening assay for antagonists of the Sphingosine 1-Phosphate Receptor 3 (S1P3). [Related pubchem assays: 1429, 485 ]; format: functional
[16] = target: 5-hydroxytryptamine receptor 1E (Homo sapiens, UniProt P28566); assay: Counterscreen assay for S1P3 antagonists: Dose response cell-based high throughput screening assay to identify antagonists of the 5-Hydroxytryptamine Receptor Subtype 1E (5HT1E). [Related pubchem assays: 1429, 485 ]; format: functional
Chain of 5-hydroxytryptamine receptor 1E (P28566 whole entry): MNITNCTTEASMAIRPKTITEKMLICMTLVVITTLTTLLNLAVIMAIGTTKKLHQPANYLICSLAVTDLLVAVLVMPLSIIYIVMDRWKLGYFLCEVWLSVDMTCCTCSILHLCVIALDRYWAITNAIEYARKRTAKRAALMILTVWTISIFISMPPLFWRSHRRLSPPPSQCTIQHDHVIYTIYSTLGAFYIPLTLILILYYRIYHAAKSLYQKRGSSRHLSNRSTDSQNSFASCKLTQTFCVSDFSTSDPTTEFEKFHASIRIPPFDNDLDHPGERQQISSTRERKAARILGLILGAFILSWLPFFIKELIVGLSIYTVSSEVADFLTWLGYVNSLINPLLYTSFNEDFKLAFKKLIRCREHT

Chain of Sphingosine 1-phosphate receptor 3 (Q99500 whole entry): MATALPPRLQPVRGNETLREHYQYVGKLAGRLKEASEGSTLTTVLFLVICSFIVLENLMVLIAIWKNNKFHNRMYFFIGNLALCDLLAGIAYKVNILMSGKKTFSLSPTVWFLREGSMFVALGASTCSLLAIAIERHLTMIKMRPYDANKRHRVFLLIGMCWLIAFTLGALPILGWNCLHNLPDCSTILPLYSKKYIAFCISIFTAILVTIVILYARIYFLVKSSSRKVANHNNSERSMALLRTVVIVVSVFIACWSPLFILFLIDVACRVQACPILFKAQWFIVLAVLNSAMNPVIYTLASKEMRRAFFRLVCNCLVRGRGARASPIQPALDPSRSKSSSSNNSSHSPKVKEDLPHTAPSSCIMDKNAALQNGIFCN
Chain of NS3 (A3EZJ3 whole entry): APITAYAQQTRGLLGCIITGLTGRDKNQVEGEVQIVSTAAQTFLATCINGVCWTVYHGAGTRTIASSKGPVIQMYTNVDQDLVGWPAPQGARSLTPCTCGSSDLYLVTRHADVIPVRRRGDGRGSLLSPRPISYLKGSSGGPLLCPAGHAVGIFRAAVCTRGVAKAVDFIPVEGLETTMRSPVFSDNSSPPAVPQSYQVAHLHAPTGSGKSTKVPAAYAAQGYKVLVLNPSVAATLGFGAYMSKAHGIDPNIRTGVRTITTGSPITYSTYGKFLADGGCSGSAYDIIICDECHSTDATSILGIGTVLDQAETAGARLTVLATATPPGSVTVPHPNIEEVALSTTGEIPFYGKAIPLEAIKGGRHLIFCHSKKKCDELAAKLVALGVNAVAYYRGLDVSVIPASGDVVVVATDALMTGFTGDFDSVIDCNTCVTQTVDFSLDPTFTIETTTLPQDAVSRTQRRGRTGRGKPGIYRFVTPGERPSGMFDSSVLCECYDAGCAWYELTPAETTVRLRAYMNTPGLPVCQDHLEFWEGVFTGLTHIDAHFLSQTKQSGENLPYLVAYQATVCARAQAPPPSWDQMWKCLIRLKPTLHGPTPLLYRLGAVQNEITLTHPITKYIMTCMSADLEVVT
Chain of Mucolipin-3 (Q8TDD5 whole entry): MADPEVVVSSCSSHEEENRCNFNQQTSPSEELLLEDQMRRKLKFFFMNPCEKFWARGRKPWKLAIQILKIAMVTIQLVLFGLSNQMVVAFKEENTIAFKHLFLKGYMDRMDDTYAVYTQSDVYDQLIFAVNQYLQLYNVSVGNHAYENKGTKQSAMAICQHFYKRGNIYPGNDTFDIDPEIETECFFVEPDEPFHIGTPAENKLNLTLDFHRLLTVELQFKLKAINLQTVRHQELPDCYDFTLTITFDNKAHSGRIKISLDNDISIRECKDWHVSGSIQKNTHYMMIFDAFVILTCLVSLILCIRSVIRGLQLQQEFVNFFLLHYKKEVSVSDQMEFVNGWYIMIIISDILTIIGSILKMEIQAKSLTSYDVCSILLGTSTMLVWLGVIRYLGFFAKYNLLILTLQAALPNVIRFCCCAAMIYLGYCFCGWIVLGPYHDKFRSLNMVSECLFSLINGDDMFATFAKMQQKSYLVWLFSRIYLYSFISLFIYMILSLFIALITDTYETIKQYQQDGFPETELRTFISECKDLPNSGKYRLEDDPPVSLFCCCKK
Chain of Ion channel NompC (Q7T1G6 whole entry): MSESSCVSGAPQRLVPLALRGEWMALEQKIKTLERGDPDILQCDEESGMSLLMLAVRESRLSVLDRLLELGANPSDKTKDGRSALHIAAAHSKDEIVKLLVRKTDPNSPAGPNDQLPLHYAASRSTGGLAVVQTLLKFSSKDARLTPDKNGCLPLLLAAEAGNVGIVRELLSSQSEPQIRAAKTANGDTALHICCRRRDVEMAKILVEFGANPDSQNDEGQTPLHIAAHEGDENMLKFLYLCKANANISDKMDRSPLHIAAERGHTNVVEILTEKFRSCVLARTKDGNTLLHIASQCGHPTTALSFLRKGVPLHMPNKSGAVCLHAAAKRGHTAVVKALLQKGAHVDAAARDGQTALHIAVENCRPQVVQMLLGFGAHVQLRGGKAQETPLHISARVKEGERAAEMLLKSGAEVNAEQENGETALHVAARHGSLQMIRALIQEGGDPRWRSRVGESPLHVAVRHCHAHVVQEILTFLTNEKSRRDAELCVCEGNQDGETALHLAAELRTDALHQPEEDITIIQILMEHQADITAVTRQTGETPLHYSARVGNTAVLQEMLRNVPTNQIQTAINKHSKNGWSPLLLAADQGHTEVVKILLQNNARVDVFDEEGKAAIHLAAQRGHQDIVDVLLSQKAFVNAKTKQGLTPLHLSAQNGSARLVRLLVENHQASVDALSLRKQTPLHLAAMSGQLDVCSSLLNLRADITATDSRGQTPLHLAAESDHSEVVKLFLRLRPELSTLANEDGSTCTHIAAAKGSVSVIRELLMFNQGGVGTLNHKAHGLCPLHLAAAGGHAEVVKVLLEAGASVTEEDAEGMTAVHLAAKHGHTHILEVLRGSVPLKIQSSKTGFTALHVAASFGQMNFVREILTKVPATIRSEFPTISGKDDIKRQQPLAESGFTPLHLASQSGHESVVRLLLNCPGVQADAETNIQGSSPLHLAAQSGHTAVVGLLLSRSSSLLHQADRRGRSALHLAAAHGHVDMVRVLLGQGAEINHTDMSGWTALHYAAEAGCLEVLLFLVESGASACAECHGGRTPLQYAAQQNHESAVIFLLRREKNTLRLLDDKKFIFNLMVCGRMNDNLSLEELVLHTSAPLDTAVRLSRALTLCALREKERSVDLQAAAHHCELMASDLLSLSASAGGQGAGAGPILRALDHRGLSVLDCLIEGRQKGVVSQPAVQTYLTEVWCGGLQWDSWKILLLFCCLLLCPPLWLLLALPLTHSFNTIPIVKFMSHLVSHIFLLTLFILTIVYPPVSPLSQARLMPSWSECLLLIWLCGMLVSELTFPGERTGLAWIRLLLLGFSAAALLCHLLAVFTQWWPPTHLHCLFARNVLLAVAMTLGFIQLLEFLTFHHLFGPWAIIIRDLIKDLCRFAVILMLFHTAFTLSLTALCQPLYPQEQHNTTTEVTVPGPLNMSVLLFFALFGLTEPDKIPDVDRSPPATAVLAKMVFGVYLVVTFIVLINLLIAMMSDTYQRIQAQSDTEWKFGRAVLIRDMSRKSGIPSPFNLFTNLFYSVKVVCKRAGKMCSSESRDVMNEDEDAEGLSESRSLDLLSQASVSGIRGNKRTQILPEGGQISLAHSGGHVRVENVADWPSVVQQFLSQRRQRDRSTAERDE
Chain of Eukaryotic translation initiation factor 4E (P63073 whole entry, the tested form may be a part): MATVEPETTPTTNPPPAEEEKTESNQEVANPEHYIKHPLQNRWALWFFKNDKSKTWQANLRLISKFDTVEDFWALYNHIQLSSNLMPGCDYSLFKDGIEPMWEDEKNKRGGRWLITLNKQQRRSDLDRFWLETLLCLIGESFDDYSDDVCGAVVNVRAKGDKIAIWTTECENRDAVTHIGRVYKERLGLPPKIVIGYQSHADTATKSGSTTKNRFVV
Chain of Protein-tyrosine kinase 2-beta (Q14289 whole entry): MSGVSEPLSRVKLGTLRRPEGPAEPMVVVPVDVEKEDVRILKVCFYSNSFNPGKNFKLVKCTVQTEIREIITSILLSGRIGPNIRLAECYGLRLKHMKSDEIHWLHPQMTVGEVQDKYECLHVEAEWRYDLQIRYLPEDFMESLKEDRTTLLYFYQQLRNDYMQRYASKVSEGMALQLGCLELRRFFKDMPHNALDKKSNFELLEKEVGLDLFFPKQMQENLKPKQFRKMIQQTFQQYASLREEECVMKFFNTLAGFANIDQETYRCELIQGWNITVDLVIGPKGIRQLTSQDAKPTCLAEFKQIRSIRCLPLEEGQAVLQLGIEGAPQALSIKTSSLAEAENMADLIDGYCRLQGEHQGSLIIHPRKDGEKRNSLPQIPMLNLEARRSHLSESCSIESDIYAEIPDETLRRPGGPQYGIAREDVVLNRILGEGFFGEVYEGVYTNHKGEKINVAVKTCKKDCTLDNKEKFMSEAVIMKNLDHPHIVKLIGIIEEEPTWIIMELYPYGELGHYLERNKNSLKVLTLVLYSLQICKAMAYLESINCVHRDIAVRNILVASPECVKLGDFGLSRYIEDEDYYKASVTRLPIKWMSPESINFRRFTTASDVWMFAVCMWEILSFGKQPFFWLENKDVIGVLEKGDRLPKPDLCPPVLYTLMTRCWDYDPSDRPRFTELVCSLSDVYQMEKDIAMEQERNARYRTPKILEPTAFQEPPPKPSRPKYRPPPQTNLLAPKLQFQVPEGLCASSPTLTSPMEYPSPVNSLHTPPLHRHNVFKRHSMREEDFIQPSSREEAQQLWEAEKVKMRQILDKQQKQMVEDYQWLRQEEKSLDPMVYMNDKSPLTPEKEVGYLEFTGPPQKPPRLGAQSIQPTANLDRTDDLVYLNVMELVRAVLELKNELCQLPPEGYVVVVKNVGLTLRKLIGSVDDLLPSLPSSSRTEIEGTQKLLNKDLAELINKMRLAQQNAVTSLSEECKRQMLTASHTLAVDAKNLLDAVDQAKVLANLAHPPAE

Which results are given for `COc1ccc(OC)c(N(CC(=O)N2CCCCC2)S(=O)(=O)c2ccc(OC)c(OC)c2)c1`?
EC50 (Ion channel NompC): 25.6 µM (not active); EC50 (Mucolipin-3): 1.67 µM (active)

Which results are given for `CCCCCCCCCCCCCCCC[n+]1ccn(CC(C)=O)c1`?
IC50 [1]: 21.1 µM (not active); AC50 [2]: 2.86 µM (active); IC50 [3]: 10.1 µM (active); IC50 [4]: 4.25 µM (active)

For `Cc1ccc(C(=O)NNC(=O)CSc2n[nH]c3c4cc(F)ccc4nc-3n2)cc1`, which IC50 (Protein Rev) is on record?
The IC50 was > 79.4 µM (not active).

What about the IC50 [5] of the same compound?
The IC50 was 14.6 µM (active).

What about the IC50 [6] of the same compound?
The IC50 was 17.5 µM (active).

And the IC50 [7]?
The IC50 was 5.22 µM (active).

What about the IC50 [8] of the same compound?
The IC50 was 5.25 µM (active).

What about the IC50 [9] of the same compound?
The IC50 was 28.6 µM (active).

With `O=C1c2ccccc2C(=O)c2c1ccc1c(O)n(-c3ccccc3)nc21` as the compound, how does the EC50 [10] read?
Its EC50 is < 100 nM (active).

And the EC50 (H4)?
Its EC50 is 59.2 µM (inconclusive).

What about the EC50 [11] of the same compound?
Its EC50 is < 100 nM (active).

What about the EC50 [12] of the same compound?
Its EC50 is 563 nM (active).

And the EC50 [13]?
Its EC50 is 478 nM (active).

What about the EC50 [14] of the same compound?
The EC50 was 360 nM (active).

Which IC50 (NS3) does the source give for `O=C(Nc1nc(-c2ccco2)c(-c2ccco2)s1)C1CCC1` here?
The IC50 was 30.4 µM (not active).

Which results are given for `O=C(N/N=C/c1ccc(-c2ccc([N+](=O)[O-])cc2)o1)[C@H]1C[C@@H]1c1ccccc1`?
IC50 [15]: 3.03 µM (active); IC50 [16]: 1.96 µM (active)

Which IC50 [15] does the source give for `O=C(Nc1ccc(F)cc1F)c1c(C(F)(F)F)ccnc1Oc1ccc(Cl)cc1` here?
The IC50 was 4.29 µM (active).

What about the IC50 [16] of the same compound?
Its IC50 is > 50 µM (not active).

For `O=C(Nc1ccc(-c2nc3ccccc3[nH]2)cc1)c1ccccc1NS(=O)(=O)c1ccc(F)cc1`, which IC50 [4] is on record?
Its IC50 is > 50 µM (active).
